From patent publication US20100168233A1, “TERBINAFINE FORMULATION” (POWER PAPER LTD, priority 2007, published 2010)
Structures can show the parent of a compound that is named as a salt. Where two headings read alike, the source gives them in different places.

Experiments:
[1] = In vitro testing of iontophoretic delivery of terbinafine forms and hydrogel formulations to the nail bed
From the text: The acetic acid terbinafine salt may be used in the preparation of a medication for the treatment of any suitable disorder, such as the treatment of a fungal infection. In one aspect, the acetic acid terbinafine salt may be for treatment of onychomycosis.
The terbinafine acetate and/or mixture of terbinafine and acetic acid may be added to a hydrogel.

[2] = tested on: dermatophytes; conditions: cited from earlier work
[3] = cited from earlier work
[4] = cited from earlier work; remark: listed apart in the source

Compound: CN(C/C=C/C#CC(C)(C)C)Cc1cccc2ccccc12 [terbinafine HCl, terbinafine hydrochloride]
- delivery of terbinafine to the nail bed [1]: about 45 μg/cm^2
- minimum inhibitory concentration (MIC) for dermatophytes [2]: about 0.0015 μg/ml

Compound: CN(C/C=C/C#CC(C)(C)C)Cc1cccc2ccccc12 [terbinafine base, N,6,6-trimethyl-N-(naphthalen-1-ylmethyl) hept-2-en-4-yn-1-amine]
- delivery of terbinafine to the nail bed [1]: about 10 μg/cm^2
- water solubility ([3]; listed as Terbinafine base): significantly less water soluble

Compound: CN(C/C=C/C#CC(C)(C)C)Cc1cccc2ccccc12 [terbinafine, N,6,6-trimethyl-N-(naphthalen-1-ylmethyl) hept-2-en-4-yn-1-amine]
- pKa of terbinafine [4]: about 7.1
- solubility in methanol and ethanol [3]: very soluble
- water solubility [3]: low

Compound: terbinafine acetate
- delivery of terbinafine to the nail bed ([1]; in vitro, iontophoretic delivery, similar conditions): about 150 μg/cm^2
